Data from patent US8546392B2, “17Beta-hydroxysteroid dehydrogenase type 1 inhibitors for the treatment of hormone-related diseases” (Universitaet des Saarlandes, priority 2008, dated 2013).

Experiments:
17β-HSD2 = 17β-HSD2 (Homo sapiens (Human), UniProt P37059); assay: 17β-HSD2 test assay (recombinant protein from Sf9 insect cells, 3H-estradiol/NAD+); type: biochemical
Method: Recombinant protein obtained from Sf9 insect cells (0.1 μg/ml) is incubated with 20 mM KH2PO4, pH 7.4, 30 nM ^3H-estradiol and 1 mM NAD+ for 30 min at RT in the presence of the potential inhibitor in a concentration of 1 μM or 100 nM. The stock solutions of the compounds are prepared in DMSO so that the final concentration of DMSO in the sample is 1%. After the prescribed incubation time, the reaction is quenched by adding trichloroacetic acid (10% final concentration). The samples are centrifuged in microtitration plates at 400 rpm for 10 min, and the supernatants are charged on a reversed-phase HPLC equipped with a Waters Symmetrie C18 column and
Waters Sentry Guard column. The isocratic HPLC run is performed at RT with a flow rate of 1 ml/min and acetonitrile/water 48:52 as the eluent. The radioactivity was measured by means of a Packard Flow Scintillation Analyzer. The percent inhibition was calculated by means of the formulas stated above.

CYP3A4 = CYP3A4 (Homo sapiens (Human), UniProt P08684); assay: P450 inhibition assay CYP3A4; type: biochemical; settings: read-out: IC50 (mean ± SD) [μM] CYP3A4
CYP3A4, sequence (P08684 whole entry): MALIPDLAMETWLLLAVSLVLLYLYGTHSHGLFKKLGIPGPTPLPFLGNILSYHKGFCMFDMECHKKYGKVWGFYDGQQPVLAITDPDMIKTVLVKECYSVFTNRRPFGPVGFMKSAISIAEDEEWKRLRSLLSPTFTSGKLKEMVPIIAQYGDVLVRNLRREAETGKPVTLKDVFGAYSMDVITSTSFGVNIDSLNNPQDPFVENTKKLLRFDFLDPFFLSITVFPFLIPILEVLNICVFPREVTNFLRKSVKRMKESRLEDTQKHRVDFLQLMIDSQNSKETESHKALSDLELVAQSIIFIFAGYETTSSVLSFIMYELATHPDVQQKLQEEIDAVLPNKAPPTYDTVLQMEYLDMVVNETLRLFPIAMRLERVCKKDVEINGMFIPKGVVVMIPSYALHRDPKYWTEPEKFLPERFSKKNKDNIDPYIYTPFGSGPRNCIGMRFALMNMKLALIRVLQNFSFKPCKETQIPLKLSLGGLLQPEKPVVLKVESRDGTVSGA

CYP2C19 = CYP2C19 (Homo sapiens (Human), UniProt P33261); assay: P450 inhibition assay CYP2C19; settings: read-out: IC50 (mean ± SD) [μM] CYP2C19
CYP2C19, sequence (P33261 whole entry): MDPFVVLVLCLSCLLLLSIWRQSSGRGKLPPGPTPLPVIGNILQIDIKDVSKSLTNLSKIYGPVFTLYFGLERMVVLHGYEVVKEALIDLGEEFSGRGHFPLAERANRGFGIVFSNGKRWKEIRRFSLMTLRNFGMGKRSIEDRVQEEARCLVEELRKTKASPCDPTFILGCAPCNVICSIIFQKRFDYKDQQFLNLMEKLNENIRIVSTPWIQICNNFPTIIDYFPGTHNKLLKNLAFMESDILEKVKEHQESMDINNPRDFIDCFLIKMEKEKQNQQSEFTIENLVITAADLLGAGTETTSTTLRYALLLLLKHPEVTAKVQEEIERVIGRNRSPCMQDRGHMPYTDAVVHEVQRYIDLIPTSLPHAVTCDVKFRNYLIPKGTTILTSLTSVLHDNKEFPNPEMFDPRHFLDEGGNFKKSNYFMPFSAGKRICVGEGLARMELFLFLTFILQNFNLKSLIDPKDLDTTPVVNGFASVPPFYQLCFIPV

CYP2B6 = CYP2B6 (Homo sapiens (Human), UniProt P20813); assay: P450 inhibition assay CYP2B6; settings: read-out: IC50 (mean ± SD) [μM] CYP2B6
CYP2B6, sequence (P20813 whole entry): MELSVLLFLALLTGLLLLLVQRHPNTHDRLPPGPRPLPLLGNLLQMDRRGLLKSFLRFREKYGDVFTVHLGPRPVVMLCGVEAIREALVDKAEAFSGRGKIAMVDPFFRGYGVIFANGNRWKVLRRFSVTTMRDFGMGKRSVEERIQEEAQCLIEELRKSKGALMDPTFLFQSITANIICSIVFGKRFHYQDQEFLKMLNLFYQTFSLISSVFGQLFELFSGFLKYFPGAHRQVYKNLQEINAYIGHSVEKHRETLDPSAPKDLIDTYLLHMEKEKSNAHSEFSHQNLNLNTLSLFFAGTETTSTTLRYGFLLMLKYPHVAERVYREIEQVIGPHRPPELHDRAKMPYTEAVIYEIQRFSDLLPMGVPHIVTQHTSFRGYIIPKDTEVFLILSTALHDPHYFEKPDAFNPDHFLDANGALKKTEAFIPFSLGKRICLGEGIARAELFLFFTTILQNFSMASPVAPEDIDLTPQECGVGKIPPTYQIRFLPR

CYP1A2 = CYP1A2 (Homo sapiens (Human), UniProt P05177); assay: P450 inhibition assay CYP1A2
CYP1A2, sequence (P05177 whole entry): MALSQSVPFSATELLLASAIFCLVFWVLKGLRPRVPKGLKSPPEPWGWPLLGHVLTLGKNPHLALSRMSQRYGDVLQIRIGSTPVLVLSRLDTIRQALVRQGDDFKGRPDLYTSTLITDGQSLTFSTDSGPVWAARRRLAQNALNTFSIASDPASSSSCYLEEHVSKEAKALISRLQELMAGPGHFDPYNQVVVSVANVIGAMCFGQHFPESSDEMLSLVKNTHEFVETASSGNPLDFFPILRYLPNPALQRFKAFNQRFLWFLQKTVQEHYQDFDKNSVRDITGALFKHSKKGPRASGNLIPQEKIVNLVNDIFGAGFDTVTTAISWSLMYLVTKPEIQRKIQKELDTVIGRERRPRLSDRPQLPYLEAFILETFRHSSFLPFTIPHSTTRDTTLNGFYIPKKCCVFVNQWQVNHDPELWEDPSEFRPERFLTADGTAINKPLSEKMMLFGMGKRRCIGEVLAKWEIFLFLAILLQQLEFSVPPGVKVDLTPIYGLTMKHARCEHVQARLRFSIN

[1] = Test for metabolic stability, liver microsomes
Method: The assay was performed with liver microsomes of rats.
The incubation solution (180 μl) consists of 90 μl of a microsomal suspension of 0.33 mg/ml protein in 100 mM phosphate buffer, pH 7.4, with 90 μl NADP-regenerating system (NADP: 1 mM, glucose-6-phosphate 5 mM, glucose-6-phosphate dehydrogenase: 5 U/ml, MgCl2 5 mM).
The reaction is started by adding 20 μl of the compound to be tested in 20% ACN to the microsome/buffer mixture preincubated at 37° C. After 0, 15, 30 and 60 minutes, 200 μl of sample solution is withdrawn and subjected to ACN precipitation. The isolation of the compounds is effected by adding 200 μl ACN that contains the internal standard (1 μM) to 200 μl of sample solution and calibration standard. After shaking for 10 s and centrifugation at 4000 g, an aliquot of the supernatant is subjected to LC-MS/MS. Two controls are included, namely a positive control with 7-ethoxycoumarin as a reference to verify the microsomal enzyme activity, and a negative control in which microsomes are used that were heated for 25 minutes without a regenerating system, in order to ensure that the loss of substance is actually due to metabolization.
The amount of compound in a sample is expressed as the percent fraction of the compound remaining as compared to time t=0 (100%). The percent fraction is plotted versus time.

CaCo-2 cells = assay: CaCo-2 assay (transport experiments); type: in vitro ADME
Method: (§1) Four reference compounds (atenolol, testosterone, ketoprofene and erythromycin) were employed in each assay for evaluating the transport properties of the CaCo-2 cells. The initial concentration of the compounds in the donor compartment was 50 μM (in buffer with 1% ethanol or DMSO). […] For glycoprotein P (P-gp) studies, bidirectional experiments were performed. The absorptive and secretory permeabilities (Papp(a-b) and Papp(b-a)) were determined. Thus, erythromycin was used as a substrate, and verapamil was used as an inhibitor of P-gp. Each experiment was performed in triplicate. The integrity of the monolayer was determined by means of TEER (transepithelial electric resistance) and the permeability for each assay was determined using Lucifer Yellow. All samples of the CaCo-2 transport experiments were analyzed by means of LC/MS/MS after dilution with buffer (1:1 with 2% acetic acid).

[2] = CaCo-2 assay (transport experiments); type: in vitro ADME; settings: human, Caco-2; initial donor concentration 50 μM
Method: as §1

CYP2C9 = CYP2C9 (Homo sapiens (Human), UniProt P11712); assay: P450 inhibition assay CYP2C9; settings: read-out: IC50 (mean ± SD) [μM] CYP2C9
CYP2C9, sequence (P11712 whole entry): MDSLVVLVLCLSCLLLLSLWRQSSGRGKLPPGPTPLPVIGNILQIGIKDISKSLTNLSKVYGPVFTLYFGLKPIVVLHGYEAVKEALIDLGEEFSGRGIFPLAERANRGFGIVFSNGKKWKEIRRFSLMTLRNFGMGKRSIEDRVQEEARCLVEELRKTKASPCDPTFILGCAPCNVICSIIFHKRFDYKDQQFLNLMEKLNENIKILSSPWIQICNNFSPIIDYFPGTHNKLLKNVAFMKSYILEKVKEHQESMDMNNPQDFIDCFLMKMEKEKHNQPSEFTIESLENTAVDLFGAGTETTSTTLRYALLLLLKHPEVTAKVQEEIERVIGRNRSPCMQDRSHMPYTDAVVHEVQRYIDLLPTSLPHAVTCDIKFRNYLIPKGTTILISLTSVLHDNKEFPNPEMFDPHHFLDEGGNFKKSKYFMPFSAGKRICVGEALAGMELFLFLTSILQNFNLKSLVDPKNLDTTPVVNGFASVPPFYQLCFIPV

[3] = In vivo pharmacokinetics (rat), single oral administration; settings: single oral administration 50 mg/kg, male Wistar rats
17β-HSD1 = 17β-HSD1 (Homo sapiens (Human), UniProt P14061); assay: 17β-HSD1 test assay (recombinant protein from Sf9 insect cells, 3H-estrone/NADPH); type: biochemical
17β-HSD1, sequence (P14061 whole entry): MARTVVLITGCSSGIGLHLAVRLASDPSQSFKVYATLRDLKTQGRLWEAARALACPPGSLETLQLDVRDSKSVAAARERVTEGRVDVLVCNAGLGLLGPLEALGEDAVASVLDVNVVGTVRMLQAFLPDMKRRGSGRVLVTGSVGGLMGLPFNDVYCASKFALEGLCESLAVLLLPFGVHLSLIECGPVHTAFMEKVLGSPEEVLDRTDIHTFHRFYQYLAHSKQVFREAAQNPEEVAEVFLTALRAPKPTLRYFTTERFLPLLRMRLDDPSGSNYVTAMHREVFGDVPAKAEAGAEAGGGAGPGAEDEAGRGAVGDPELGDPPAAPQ
Summary of the method: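 Sf9-expressed recombinant enzyme (0.1 μg/ml) with 30 nM 3H-estrone and 1 mM NADPH in 20 mM KH2PO4 pH 7.4, 30 min at RT; inhibitor at 1 μM or 100 nM, 1% DMSO final. Quenched with TCA; conversion measured by reversed-phase HPLC with flow scintillation detection.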

CYP2D6 = CYP2D6 (Homo sapiens (Human), UniProt P10635); assay: P450 inhibition assay CYP2D6; type: biochemical; settings: read-out: IC50 (mean ± SD) [μM] CYP2D6
CYP2D6, sequence (P10635 whole entry): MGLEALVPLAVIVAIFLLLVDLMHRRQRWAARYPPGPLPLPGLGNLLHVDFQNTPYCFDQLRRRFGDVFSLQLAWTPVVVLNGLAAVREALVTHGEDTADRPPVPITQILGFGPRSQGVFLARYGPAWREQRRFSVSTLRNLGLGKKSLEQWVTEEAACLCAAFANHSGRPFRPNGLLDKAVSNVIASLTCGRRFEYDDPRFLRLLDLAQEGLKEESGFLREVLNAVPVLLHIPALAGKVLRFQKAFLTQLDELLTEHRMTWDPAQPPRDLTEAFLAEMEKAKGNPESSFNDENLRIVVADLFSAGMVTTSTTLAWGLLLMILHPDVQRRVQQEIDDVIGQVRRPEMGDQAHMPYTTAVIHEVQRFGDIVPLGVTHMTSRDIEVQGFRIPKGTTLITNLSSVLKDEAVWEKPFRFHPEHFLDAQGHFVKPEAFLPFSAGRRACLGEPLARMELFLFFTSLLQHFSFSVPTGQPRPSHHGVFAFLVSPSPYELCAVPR

17β-HSD2, sequence (P37059 whole entry): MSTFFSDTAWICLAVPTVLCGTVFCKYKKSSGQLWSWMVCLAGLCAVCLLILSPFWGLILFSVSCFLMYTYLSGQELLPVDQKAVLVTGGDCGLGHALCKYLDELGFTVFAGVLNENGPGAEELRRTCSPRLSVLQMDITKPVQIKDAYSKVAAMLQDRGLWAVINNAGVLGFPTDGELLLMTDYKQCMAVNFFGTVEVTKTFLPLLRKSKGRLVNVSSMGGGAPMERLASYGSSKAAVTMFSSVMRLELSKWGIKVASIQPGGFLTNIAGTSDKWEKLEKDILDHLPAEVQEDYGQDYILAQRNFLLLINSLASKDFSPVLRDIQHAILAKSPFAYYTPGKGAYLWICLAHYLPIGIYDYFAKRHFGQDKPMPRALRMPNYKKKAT

Question: What does the source list for `Oc1cccc(-c2ccc3c(-c4cccnc4)c(O)ccc3c2)c1` [Compound 59, 6-(3-Hydroxyphenyl)-1-(pyridin-3-yl)naphthalene-2-ol]?
Answer: inhibition at 0.1 µM (17β-HSD2; read-out: HSD2 100 nM (% inhibition), inhibitor 100 nM): 66.1%; inhibition at 1 µM (17β-HSD2; read-out: HSD2 1 μM (% inhibition), inhibitor 1 μM): 90.3%; IC50 (CYP3A4): 0.221 ± 0.002 µM; IC50 (CYP2C19): 0.88 ± 0.03 µM; IC50 (CYP2B6): 5.34 ± 0.391 µM; IC50 (CYP1A2): 14 nM; Slope (−k) ([1]; rat liver microsomes): −0.051; half-life ([1]; rat, liver microsomes, pH 7.4): 13.6 min; microsomal CLint ([1]; rat, liver microsomes, pH 7.4): 340 µL/min/mg; mass balance [% ± SD] (CaCo-2 cells): 29.9 ± 2.4%; Permeability (CaCo-2 cells; class in words): high; final basolateral concentration [μM ± SD] (CaCo-2 cells; initial donor concentration 50 μM): 11.0 ± 0.5 µM; Papp at 180 min, 50 μM [2]: 13.8 ×10⁻⁶ cm/s; IC50 (CYP2C9): 0.15 ± 0.03 µM; AUC(0-t) ([3]; rat, plasma): 203 ng·h/mL; Tmax ([3]; rat, plasma): 2 h; AUC(0-inf) ([3]; rat, plasma, extrapolated to ∞): 203 ng·h/mL; t1/2z [3]: 1.54 h; tz [3]: 8.0 h; inhibition at 1 µM (17β-HSD1; read-out: HSD 1 μM (% inhibition of HSD1)): 92.3%; inhibition at 0.1 µM (17β-HSD1; read-out: HSD1 100 nM (% inhibition)): 87.4%; IC50 (CYP2D6): 22.9 ± 1.85 µM
